Assay results taken from the NIST ThermoML archive (doi:10.1016/j.jct.2012.03.022).
Numbers after ± are expanded uncertainties.

Settings: Liquid, Closed cell (Static) method

vapor or sublimation pressure (258.15 K): 148.6 ± 1 kPa
vapor or sublimation pressure (268.15 K): 219.4 ± 1.1 kPa
vapor or sublimation pressure (278.15 K): 314.1 ± 1.1 kPa
vapor or sublimation pressure (288.15 K): 437.8 ± 1.2 kPa
Compound: CC(F)F [1,1-difluoroethane]
